Results taken from US10500178B2, “LTB4 inhibition to prevent and treat human lymphedema” (The Board of Trustees of the Leland Stanford Junior …, priority 2015, dated 2019).

Experiments:
LTB4 = test: serum LTB4 levels in lymphedema mice; type: in vivo, mouse; conditions: therapies initiated on d3, assessed on d24
Procedure: (§1) All small molecule drugs were administered through daily intraperitoneal injection.
Quantification of LTB4, PGE2 and S1P with LC-MS/MS. Briefly, LTB4, PGE2 and S1P were separated from serum with an ACE reverse phase C18 HPLC column. Formic acid 0.5% in 5 mM NH4Ac (A) and formic acid 0.5% in acetonitrile/water (9/1) (B) were used as the mobile phase. […] The internal standard of this method was Carbutamide. The quantification limit was 1 ng/ml. The calibration range was 1-2000 ng/ml.

LEC S1pr1−/− mice = test: lymphedema surgery in LEC S1pr1-/- mice; type: in vivo, mouse
From the text: To generate lymphatic endothelial specific tdTomato reporter mice (Prox1-Cre-ER-tdTomato), Prox1-Cre-ER mice were crossed with tdTomato mice. To create lymphatic endothelial cell specific Notch1 or S1pr1 conditional knockouts, Prox1-Cre-ER mice were crossed with Notch1loxp/loxp or S1pr1loxp/loxp mice. Mice with Prox1-Cre-ER and both target alleles floxed by Prox1-Cre-ER/Notch1^loxp/loxp or Prox1-Cre-ER/S1pr1^loxp/loxp were considered to be either lymphatic endothelial cell-specific Notch1 knockout (LEC Notch1−/−) or S1pr1 knockout (LEC S1pr1^−/−), respectively. Mice expressing Prox1-Cre-ER were used as WT controls. […] Cre-mediated gene knockout efficiency was evaluated by enumerating Notch1- or S1PR1-expressing lymphatic endothelial cells or by qRT-PCR measurements of Notch1 or S1pr1 transcripts in the lymphatic endothelial cells, sorted by flow cytometry. […]
Tail volume quantitation. Tail-volume measurements at each designated time were quantified by observers blinded to the treatment status of the subjects. Tail volumes were calculated through a digital photographic technique pre-operatively, and post-operatively (d3, d9, d14, d20, and d24), using an Olympus D520 Zoom digital camera at SHQ resolution at a fixed distance from the subject (37 cm), as previously described. […]

S1P, S1pr1, Sphk1, eNOS = test: S1P signaling in mouse lymphedema; type: in vivo; conditions: therapy initiated 3d after surgery
Procedure: as §1
Quantification of LTB4, PGE2 and S1P with LC-MS/MS. Briefly, LTB4, PGE2 and S1P were separated from serum with an ACE reverse phase C18 HPLC column. Formic acid 0.5% in 5 mM NH4Ac (A) and formic acid 0.5% in acetonitrile/water (9/1) (B) were used as the mobile phase. Lipids were detected with positive multiple reaction monitor (MRM) scanning at 335.16/194.80 m/z for LTB4, 351.20/189.50 m/z for PGE2 and 330.20/264.40 m/z for S1P using a Sciex API-4000 MS/MS combined with a Shimazu 20A HPLC system. The internal standard of this method was Carbutamide. The quantification limit was 1 ng/ml. The calibration range was 1-2000 ng/ml. The accuracy of the standards and control samples ranged from 88.7% to 120%.

## CC(C)C[C@H](NC(=O)[C@@H](O)[C@H](N)Cc1ccccc1)C(=O)O [bestatin, (2S)-2-[[(2S,3R)-3-amino-2-hydroxy-4-phenylbutanoyl]amino]-4-methylpentanoic acid]
LTB4
  serum LTB4 levels: effectively reduced
LEC S1pr1−/− mice
  lymphatic Sphk1 and eNOS expression after treatment: remaining low
  reversal of lymphedema (tail volume, dermal thickness, lymphatic dilation): failed to reverse lymphedema
S1P, S1pr1, Sphk1, eNOS
  S1P and S1pr1 levels: restored
  Sphk1 and eNOS expression: normalized
